Entries after “also recorded” stand apart in the source; their conditions may differ.
Assays:
[1] = test system: 60 cell lines (human tumor cell lines of the cancer screening panel); assay: NCI 60 cell line screening, single point dosing at 10 μM (SRB); type: cell-based
Procedure: (§1) The screening is a two-stage process, beginning with the evaluation of all compounds against 60 cell lines at a single dose of 10^−5 M.
The human tumor cell lines of the cancer screening panel are grown in RPMI 1640 medium containing 5% fetal bovine serum and 2 mM L-glutamine. Cells are inoculated into 96 well microtiter plates in 100 μL at plating densities ranging from 5,000 to 40,000 cells/well depending on the doubling time of individual cell lines. After cell inoculation, the microtiter plates are incubated at 37° C., 5% CO2, 95% air and 100% relative humidity for 24 h prior to addition of experimental drugs.
After 24 h, two plates of each cell line are fixed in situ with TCA, to represent a measurement of the cell population for each cell line at the time of drug addition Time Zero (Tz). Experimental drugs are solubilized in dimethyl sulfoxide:glycerol 9:1 at 400-fold the desired final maximum test concentration and stored frozen at −70° C. prior to use. At the time of drug addition, an aliquot of frozen concentrate is thawed and diluted to twice the desired final maximum test concentration with complete medium containing 50 μg/ml gentamicin. Additional four, 10-fold or ½ log serial dilutions are made to provide a total of five drug concentrations plus control. Aliquots of 100 μl of these different drug dilutions are added to the appropriate microtiter wells already containing 100 μl of medium, resulting in the required final drug concentrations.
Positive control is prepared by adding the known anti-tumor agent adriamycin, NSC 123127, prepared and stored the same as the compounds for testing.
Following drug addition, the plates are incubated for an additional 48 h at 37° C., 5% CO2, 95% air, and 100% relative humidity. For adherent cells, the assay is terminated by the addition of cold TCA. Cells are fixed in situ by the gentle addition of 50 μl of cold 50% (w/v) TCA (final concentration, 10% TCA) and incubated for 60 minutes at 4° C. The supernatant is discarded, and the plates are washed five times with tap water and air dried. Sulforhodamine B (SRB) solution (100 μl) at 0.4% (w/v) in 1% acetic acid is added to each well, and plates are incubated for 10 minutes at room temperature. After staining, unbound dye is removed by washing five times with 1% acetic acid and the plates are air dried. Bound stain is subsequently solubilized with 10 mM trizma base, and the absorbance is read on an automated plate reader at a wavelength of 515 nm. For suspension cells, the methodology is the same except that the assay is terminated by fixing settled cells at the bottom of the wells by gently adding 50 μl of 80% TCA (final concentration, 16% TCA).
For the 1-dose 60 cell testing, the Growth Percent is calculated for each cell line/drug combination from the absorbance measurement for the no-drug control (C), the absorbance at time zero (Tz) and the absorbance measurement after incubation of the cells in the presence of drug (Ti): Growth Percent=[(Ti−Tz)/(C−Tz)]×100 for cell line/drug combinations for which Ti≧Tz. Growth Percent=[(Ti−Tz)/Tz]×100 for cell line/drug combinations for which Ti<Tz.
Calculation of the Growth Percent by these equations allows detection of both growth inhibition (Growth Percent values between 0 and 100) and lethality (Growth Percent values less than 0). For example, a Growth Percent value of 100 means no growth inhibition. A Growth Percent value of 40 would mean 60% growth inhibition. A Growth Percent value of 0 means no net growth over the course of the experiment, or “cytostatic”, no change by growth or cell death. A Growth Percent value of −40 would mean 40% lethality. A Growth Percent value of −100 means all cells are dead.
For 1-dose 60 cell testing, the Mean Growth Percent, Delta and Range across all 60 cell lines are also calculated. The Deviation of each cell line/drug combination from the Mean is also calculated and plotted: Deviation=Mean Growth Percent−Growth Percent […]

[2] = test system: SK-MEL-5 (Melanoma); assay: NCI single point 10 μM, SK-MEL-5; type: cell-based, human; conditions: 10^−5 M
Procedure: as §1
(§2) The human tumor cell lines of the cancer screening panel are grown in RPMI 1640 medium containing 5% fetal bovine serum and 2 mM L-glutamine. Cells are inoculated into 96 well microtiter plates in 100 μL at plating densities ranging from 5,000 to 40,000 cells/well depending on the doubling time of individual cell lines. After cell inoculation, the microtiter plates are incubated at 37° C., 5% CO2, 95% air and 100% relative humidity for 24 h prior to addition of experimental drugs. […]
(§3) Following drug addition, the plates are incubated for an additional 48 h at 37° C., 5% CO2, 95% air, and 100% relative humidity. […] Bound stain is subsequently solubilized with 10 mM trizma base, and the absorbance is read on an automated plate reader at a wavelength of 515 nm. […]
(§4) For the 1-dose 60 cell testing, the Growth Percent is calculated for each cell line/drug combination from the absorbance measurement for the no-drug control (C), the absorbance at time zero (Tz) and the absorbance measurement after incubation of the cells in the presence of drug (Ti): Growth Percent=[(Ti−Tz)/(C−Tz)]×100 for cell line/drug combinations for which Ti≧Tz. […]

[3] = test system: MDA-MB-231/ATCC (Breast); assay: NCI single point 10 μM, MDA-MB-231/ATCC; type: cell-based, human; conditions: 10^−5 M
Procedure: as §1, §2, §3, §4

[4] = test system: SK-MEL-28 (Melanoma); assay: NCI single point 10 μM, SK-MEL-28; type: cell-based, human; conditions: 10^−5 M
Procedure: as §1, §2, §3, §4

[5] = test system: MALME-3M (Melanoma); assay: NCI single point 10 μM, MALME-3M; type: cell-based, human; conditions: 10^−5 M
Procedure: as §1, §2, §3, §4

[6] = test system: NCI-H322M (non-small cell lung cancer); assay: NCI five point dosing, NCI-H322M; type: cell-based, human
Procedure: (§5) RL-4 was evaluated against the 60 cell panel at five concentration levels, 10^−8 M, 10^−7 M, 10^−6 M, 10^−5 M and 10^−4 M.
as §2, §3
(§6) The percentage growth is calculated at each of the five drug concentrations levels using the seven absorbance measurements, namely absorbance at time zero (Tz), absorbance of control after incubation (C), and absorbance of test sample after incubation in the presence of drug at each of the five concentration levels (Ti). The Growth Percent is calculated as it was for the 1 dose assay: Growth Percent=[(Ti−Tz)/(C−Tz)]×100 for cell line/drug combinations for which Ti≧Tz. […]

[7] = test system: OVCAR-5 (ovarian cancer); assay: NCI five point dosing, OVCAR-5; type: cell-based, human
Procedure: as §5, §2, §3, §6

[8] = single dose 10^−5 M, 60 cell lines
[9] = single point 10 μM, 60 cell lines
[10] = Homo sapiens, five point dosing

SMILES: S=c1c2ncccc2c(-c2ccccn2)nn1C1CCCCC1 [RL-4, 7-cyclohexyl-5-(pyridin-2-yl)pyrido[2,3-d]pyridazine-8(7H)-thione]
- GI50 ([1]; Homo sapiens, single point 10 μM, 22 of 60 cell lines, read-out: GI50 for 22 of 60 cell lines (NCI Results, single point, 10 μM)): ≤ 10 µM
- LC50 ([1]; Homo sapiens, single point 10 μM, all 60 cell lines, read-out: LC50 for all 60 cell lines tested (NCI Results, single point, 10 μM)): > 10 µM
- Delta of Growth Percent across all cell lines [1, 8]: 52.07
- Mean Growth Percent across all cell lines [1, 8]: 59.94%
- Range of Growth Percent across all cell lines [1, 8]: 121.36
- number of cell lines with Growth Percentages greater than 90% ([1]; single dose 10^−5 M, of 60 cell lines): 6
- anti-proliferative effect / growth inhibition (in words) [1, 9]: significant growth inhibition in almost all cell lines; also recorded: has anti-proliferative effects; also recorded: showed cell growth inhibition across the screened cell lines; also recorded: significant growth inhibition in cancer cell lines
- toxicity / cell lethality (in words) [1, 9]: relatively non-toxic; also recorded: no associated toxicity; also recorded: No Toxicity is observed
- number of cell lines with growth inhibition ≧50% ([1]; single point 10 μM, of 60 cell lines tested): 22
- Growth Percent [2]: 7.87%
- Growth Percent [3]: 129.23%
- Growth Percent [4]: 93.53%
- Growth Percent [5]: 98.97%
- Growth Percent ([6]; 10^−4 M dose): 60%
- GI50 [6, 10]: > 100 µM
- Growth Percent ([7]; 10^−4 M dose): 54%
- GI50 [7, 10]: > 100 µM
